From patent US20230123585A1, “COMPOSITIONS AND METHODS FOR TREATING OR PREVENTING CANCER USING DEUBIQUITINASE INHIBITORS” (The University of Chicago, priority 2020, published 2023)

Legend:
[1] = system: m^6A methyltransferase complex in HCT-116 cells; test: Immunoblot of m^6A methyltransferase complex in HCT-116 cell lysates; type: cell-based; conditions: 8 h, 10 μM PD0325901 or 0.1 μM trametinib
Protocol: FIGS. 14A-14I: Phosphorylation of the m^6A Methyltransferase Complex May Affect Tumorigenesis. (A) Oncogenes (promote cancer), tumor suppressors (inhibit carcinogenesis), and drivers (important in cancer development, either oncogene or tumor suppressor) were used as classifiers by Cancermine database to identify the potential role of METTL3 from the published literature. (B) LC-MS/MS quantification of the m^6A/A ratio in mRNA of melanoma cell lines. (C) After 8 h treatment with 10 μM PD0325901 or 0.1 μM tramentib, cell lysates from HCT-116 cells were analyzed by immunoblot. (D) Kaplan-Meier analysis of overall survival time based on METTL3 expression from the skin cutaneous melanoma (SKCM) dataset at The Cancer Genome Atlas (TCGA). […] The ubiquitination of METTL3 was detected by IP with anti-METTL3 and immunoblot with anti-HA. (F) After 8 hr treatment with 10 μM EOAI3402143 (EOAI) or 30 μM vialinin A, cell lysates from HCT-116 cells were analyzed by immunoblot. […] (I) LC-MS/MS quantification of the m^6A/A ratio in mRNA of breast cancer cell lines.
(§1) Immunoprecipitation, immunoblotting, and in vitro kinase assay. […] Primary antibodies were detected by HRP-linked secondary antibodies (Cell Signaling) together with SuperSignal West Pico Plus chemiluminescent substrate (Thermo Scientific) and imaged in a FluorChem R system (ProteinSimple).

p-METTL3 (S43) = p-METTL3 (S43) in A375 cells, IP with METTL3 antibody followed by immunoblot; type: cell-based, human; conditions: 1 h, 1 μM dabrafenib, 1 μM PLX-4720, 10 μM PD0325901, 0.1 μM trametinib
Description: FIGS. 10A-10G: ERK Interacts and Phosphorylates METTL3 and WTAP. (A-C) Mass spectrometry detected S43, S50 and S525 phosphorylation in METTL3 in 293T cells co-transfected with B-RAF V600E. (D) Characterization of anti-p-METTL3 (S43) antibodies of 293T cells transfected as indicated with MEK S218D/S222D, HER2 V659E, B-RAF V600E and WT or non-phosphorylatable alanine mutant (3A) METTL3. (E) The METTL3 S43 phosphorylation was identified by in vitro kinase assays, in which purified METTL3-METTL14 were incubated with activated ERK2. (F) A375 cells were treated with 1 μM dabrafenib, 1 μM PLX-4720, 10 μM PD0325901, 0.1 μM tramentib for 1 h. Cell lysates were subjected to IP with METTL3 antibody followed by immunoblot. (G) Phos-tag SDS-PAGE showing the phosphorylation status of WT or non-phosphorylatable alanine mutants of mice WTAP in 293T cells co-transfected with B-RAF. 2A, T298A/S341A.
To investigate METTL3 phosphorylation by ERK inside cells, a polyclonal antibody was generated that targets S43-phosphorylated METTL3. This antibody recognizes S43-phosphorylated METTL3 but not a mutant form of METTL3, METTL3 3A, with all three phosphorylation serine sites replaced with alanine (FIG. 10D). This P-S43 antibody was then used as a tool to monitor METTL3 phosphorylation. […] Furthermore, the p-METTL3 (S43) in A375 cells, a human melanoma cell line with constitutively active ERK due to a B-RAF V600E mutation, was abrogated by treatments with B-RAF inhibitors (dabrafenib and PLX4720) or MEK inhibitors (PD0325901 and trametinib) (FIG. 10F), supporting that S43 phosphorylation on METTL3 is installed through the ERK pathway.
as §1, with “assay. Immunoprecipitation (IP) and immunoblotting (IB) were performed as previously described (Sun et al., 2016).” for “assay.”

ubiquitination of METTL3 = test: Ubiquitination of METTL3 in A375 cells transfected with HA-ubiquitin (IP anti-METTL3, immunoblot anti-HA); type: cell-based, human; conditions: 10 μM MG-132 and PD0325901 for 8 h
Protocol: FIGS. 11A-11G: USP5 is Required for ERK-Mediated METTL3 Stabilization. (A) A375 cells transfected with HA-ubiquitin (ub) were treated with 10 μM MG-132 and MEK inhibitor PD0325901 for 8 h. The ubiquitination of METTL3 was detected by IP with anti-METTL3 and immunoblot with anti-HA. (B) After 8 h treatment with 10 μM PD0325901 with or without 10 μM MG-132, cell lysates from A375 cells were analyzed by immunoblot. (C) A375 cells were treated with various concentrations of PD0325901 for 1 h. Cell lysates were subjected to IP with METTL3 antibody followed by immunoblot. (D) 293T cells transfected as indicated were subjected to IP/immunoblot analysis. (E) Immunofluorescence analysis of myc-METTL3 (green) in mESC stable transfectants. DAPI (blue) was used to mark the nucleus. (F) Lysates of 293T cells transfected as indicated were subjected to IP with anti-Flag antibody followed by immunoblot. (G) Immunofluorescence analysis of 293T cells co-transfected with myc-METTL3 (green), Flag-USP5 (red) with or without constitutively active B-RAF.
FIGS. 14A-14I: Phosphorylation of the m^6A Methyltransferase Complex May Affect Tumorigenesis. […] (B) LC-MS/MS quantification of the m^6A/A ratio in mRNA of melanoma cell lines. (C) After 8 h treatment with 10 μM PD0325901 or 0.1 μM tramentib, cell lysates from HCT-116 cells were analyzed by immunoblot. […] The ubiquitination of METTL3 was detected by IP with anti-METTL3 and immunoblot with anti-HA. (F) After 8 hr treatment with 10 μM EOAI3402143 (EOAI) or 30 μM vialinin A, cell lysates from HCT-116 cells were analyzed by immunoblot. […] (I) LC-MS/MS quantification of the m^6A/A ratio in mRNA of breast cancer cell lines.
as §1

## O=C(NOC[C@H](O)CO)c1ccc(F)c(F)c1Nc1ccc(I)cc1F [PD0325901]
[1]
  m^6A methyltransferase complex level: decreased
p-METTL3 (S43)
  p-METTL3 (S43): abrogated
Ubiquitination of METTL3
  ubiquitination of METTL3: increased
